Data from patent US11083725B2 (priority 2014, dated 2021).

Tested on: NHBE cells
Assay: Biolog metabolic array: substrate use by NHBE cells with or without CA09 infection
Assay type: cell-based, human
Details: for Substrate use, 590 nm absorbance normalized to zero hour, 1 hr: Biolog PMM2, 1 hr; for Substrate use, 590 nm absorbance normalized to zero hour, 5 hr: Biolog PMM2, 5 hr; for Substrate use, 590 nm absorbance normalized to zero hour, 7 hr: Biolog PMM2, 7 hr
[1] = Control (uninfected) NHBE cells
[2] = Virus (CA09-infected NHBE cells, MOI 1)
[3] = Virus: CA09-infected NHBE cells, MOI 1, Biolog PMM2
[4] = Virus (CA09-infected, MOI 1) NHBE cells

| Structure (SMILES) | 590 nm absorbance normalized to zero hour (substrate use), 1 hr [1] | 590 nm absorbance normalized to zero hour (substrate use), 2 hr [1] | 590 nm absorbance normalized to zero hour (substrate use), 3 hr [1] | 590 nm absorbance normalized to zero hour (substrate use), 4 hr [1] | 590 nm absorbance normalized to zero hour (substrate use), 6 hr [1] | 590 nm absorbance normalized to zero hour (substrate use), 8 hr [1] | 590 nm absorbance normalized to zero hour (substrate use), 9 hr [1] | 590 nm absorbance normalized to zero hour (substrate use), 10 hr [1] | 590 nm absorbance normalized to zero hour (substrate use), 11 hr [1] | Substrate use, 590 nm absorbance normalized to zero hour, 1 hr [1] | Substrate use, 590 nm absorbance normalized to zero hour, 5 hr [1] | Substrate use, 590 nm absorbance normalized to zero hour, 7 hr [1] | 590 nm absorbance normalized to zero hour (substrate use), 1 hr [3] | 590 nm absorbance normalized to zero hour (substrate use), 2 hr [3] | 590 nm absorbance normalized to zero hour (substrate use), 3 hr [3] | 590 nm absorbance normalized to zero hour (substrate use), 4 hr [3] | 590 nm absorbance normalized to zero hour (substrate use), 5 hr [3] | 590 nm absorbance normalized to zero hour (substrate use), 6 hr [3] | 590 nm absorbance normalized to zero hour (substrate use), 7 hr [3] | 590 nm absorbance normalized to zero hour (substrate use), 8 hr [3] | further results |
| --- | --- | --- | --- | --- | --- | --- | --- | --- | --- | --- | --- | --- | --- | --- | --- | --- | --- | --- | --- | --- | --- |
| OC[C@H]1O[C@@H](OC[C@H]2OC(O)[C@H](O)[C@@H](O)[C@@H]2O)[C@H](O)[C@@H](O)[C@@H]1O (stereo partly shown) [Gentio-biose] | 1.71 | 2.34 | 2.83 | 3.01 | 4.46 | 4.57 | 5.20 | 5.59 | 5.94 | 1.71 | 3.72 | 4.35 | 1.23 | 1.38 | 1.44 | 1.47 | 1.55 | 1.62 | 1.66 | 1.72 | 590 nm absorbance normalized to zero hour (substrate use), 1 hr [2]: 1.23; 590 nm absorbance normalized to zero hour (substrate use), 2 hr [2]: 1.38; 590 nm absorbance normalized to zero hour (substrate use), 3 hr [2]: 1.44; 590 nm absorbance normalized to zero hour (substrate use), 4 hr [2]: 1.47; 590 nm absorbance normalized to zero hour (substrate use), 5 hr [2]: 1.55; 590 nm absorbance normalized to zero hour (substrate use), 6 hr [2]: 1.62; 590 nm absorbance normalized to zero hour (substrate use), 7 hr [2]: 1.66; 590 nm absorbance normalized to zero hour (substrate use), 8 hr [2]: 1.72; 590 nm absorbance normalized to zero hour (substrate use), 9 hr [2]: 1.79; 590 nm absorbance normalized to zero hour (substrate use), 10 hr [2]: 1.85; 590 nm absorbance normalized to zero hour (substrate use), 11 hr [2]: 1.99; 590 nm absorbance normalized to zero hour (substrate use), 9 hr [3]: 1.79; 590 nm absorbance normalized to zero hour (substrate use), 10 hr [3]: 1.85; 590 nm absorbance normalized to zero hour (substrate use), 11 hr [3]: 1.99 |
| O=C(CO)[C@@H](O)[C@H](O)[C@H](O)CO [D-Fructose] | 2.31 | 2.22 | 1.77 | 2.00 | 1.51 | 3.38 | 4.01 | 3.99 | 4.24 | 2.31 | 2.59 | 3.18 | 0.44 | 0.58 | 0.71 | 0.79 | 1.00 | 1.09 | 1.17 | 1.26 | 590 nm absorbance normalized to zero hour (substrate use), 1 hr [2]: 0.44; 590 nm absorbance normalized to zero hour (substrate use), 2 hr [2]: 0.58; 590 nm absorbance normalized to zero hour (substrate use), 3 hr [2]: 0.71; 590 nm absorbance normalized to zero hour (substrate use), 4 hr [2]: 0.79; 590 nm absorbance normalized to zero hour (substrate use), 5 hr [2]: 1.00; 590 nm absorbance normalized to zero hour (substrate use), 6 hr [2]: 1.09; 590 nm absorbance normalized to zero hour (substrate use), 7 hr [2]: 1.17; 590 nm absorbance normalized to zero hour (substrate use), 8 hr [2]: 1.26; 590 nm absorbance normalized to zero hour (substrate use), 9 hr [2]: 1.43; 590 nm absorbance normalized to zero hour (substrate use), 10 hr [2]: 1.52; 590 nm absorbance normalized to zero hour (substrate use), 11 hr [2]: 1.70; 590 nm absorbance normalized to zero hour (substrate use), 9 hr [3]: 1.43; 590 nm absorbance normalized to zero hour (substrate use), 10 hr [3]: 1.52; 590 nm absorbance normalized to zero hour (substrate use), 11 hr [3]: 1.70 |
| O=C[C@H](O)[C@@H](O)[C@@H](O)CO [L-Arabinose] | 1.72 | 2.30 | 2.99 | 3.04 | 2.95 | 3.74 | 4.05 | 4.01 | 4.09 | 1.72 | 3.33 | 3.87 | 1.79 | 2.45 | 3.01 | 3.10 | 3.49 | 3.66 | 3.82 | 4.01 | 590 nm absorbance normalized to zero hour (substrate use), 1 hr [4]: 1.79; 590 nm absorbance normalized to zero hour (substrate use), 2 hr [4]: 2.45; 590 nm absorbance normalized to zero hour (substrate use), 3 hr [4]: 3.01; 590 nm absorbance normalized to zero hour (substrate use), 4 hr [4]: 3.10; 590 nm absorbance normalized to zero hour (substrate use), 5 hr [4]: 3.49; 590 nm absorbance normalized to zero hour (substrate use), 6 hr [4]: 3.66; 590 nm absorbance normalized to zero hour (substrate use), 7 hr [4]: 3.82; 590 nm absorbance normalized to zero hour (substrate use), 8 hr [4]: 4.01; 590 nm absorbance normalized to zero hour (substrate use), 9 hr [4]: 4.41; 590 nm absorbance normalized to zero hour (substrate use), 10 hr [4]: 4.50; 590 nm absorbance normalized to zero hour (substrate use), 11 hr [4]: 4.78; 590 nm absorbance normalized to zero hour (substrate use), 9 hr [3]: 4.41; 590 nm absorbance normalized to zero hour (substrate use), 10 hr [3]: 4.50; 590 nm absorbance normalized to zero hour (substrate use), 11 hr [3]: 4.78 |
| CC(=O)CC(=O)O [Acetoacetic Acid] | 1.24 | 1.37 | 2.22 | 2.13 | 0.39 | 1.52 | 1.66 | 1.49 | 2.20 | 1.24 | 2.15 | 1.53 | 1.26 | 1.40 | 1.48 | 1.54 | 1.64 | 1.67 | 1.71 | 1.74 | 590 nm absorbance normalized to zero hour (substrate use), 1 hr [4]: 1.26; 590 nm absorbance normalized to zero hour (substrate use), 2 hr [4]: 1.40; 590 nm absorbance normalized to zero hour (substrate use), 3 hr [4]: 1.48; 590 nm absorbance normalized to zero hour (substrate use), 4 hr [4]: 1.54; 590 nm absorbance normalized to zero hour (substrate use), 5 hr [4]: 1.64; 590 nm absorbance normalized to zero hour (substrate use), 6 hr [4]: 1.67; 590 nm absorbance normalized to zero hour (substrate use), 7 hr [4]: 1.71; 590 nm absorbance normalized to zero hour (substrate use), 8 hr [4]: 1.74; 590 nm absorbance normalized to zero hour (substrate use), 9 hr [4]: 1.81; 590 nm absorbance normalized to zero hour (substrate use), 10 hr [4]: 1.74; 590 nm absorbance normalized to zero hour (substrate use), 11 hr [4]: 1.81; 590 nm absorbance normalized to zero hour (substrate use), 9 hr [3]: 1.81; 590 nm absorbance normalized to zero hour (substrate use), 10 hr [3]: 1.74; 590 nm absorbance normalized to zero hour (substrate use), 11 hr [3]: 1.81 |
